Assay results as given in patent publication US9980943B2, “Methods of treating muscular dystrophy” (BOARD OF REGENTS OF THE NEVADA SYSTEM OF HIGHER EDUCATION, …, priority 2013, dated 2018).

Columns and labels:
Type in all cases: cell-based, mouse
[1] = test system: β-galactosidase in CMV-LacZ C2C12 myotubes; assay: CMV-LacZ secondary screen in C2C12 myotubes (β-Gal stabilizing assay); conditions: for CMV-LACZ in Myotubes, signal relative to DMSO: C2C12 CMV-LacZ myotubes, fold relative to DMSO; for CMV-LACZ in Myotubes, value relative to DMSO: SU9516 analogs, C2C12 CMV-LacZ, N=2
In short: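 A secondary screen identifies compounds that stabilize β-gal independently of the native promoter, using CMV-LacZ C2C12 cells. Curves span 0.5–40 μM at six levels, in duplicate.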

[2] = test system: α7 integrin (LacZ reporter in α7βgal+/− myoblasts); assay: Myoblast α7+/LacZ integrin FDG assay (Burkin assay in myoblasts, 96-well); conditions: 96-well; for Burkin Assay in Myoblasts, signal relative to DMSO: α7+/LacZ myoblasts; for Burkin Assay in Myoblasts, value relative to DMSO: SU9516 analogs, N=3-6
[3] = test system: α7 integrin (LacZ reporter in α7+/LacZ myotubes); assay: Myotube α7 integrin FDG assay (Burkin assay in myotubes, 96-well); conditions: for Burkin Assay in Myotubes, value relative to DMSO: SU9516 analogs, 96-well, N=3-6
[4] = test system: β-galactosidase in CMV-LacZ C2C12 myoblasts; assay: CMV-LacZ secondary screen in C2C12 myoblasts (β-Gal stabilizing assay); conditions: for CMV-LACZ in Myoblasts (β-galactosidase activity relative to DMSO): CMV-LacZ C2C12 myoblasts; for CMV-LACZ in Myoblasts, value relative to DMSO: SU9516 analogs, C2C12 CMV-LacZ, N=2
In short: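 Dose-response runs at 0.5–40 μM (0.5, 1, 5, 10, 20, 40 μM; N=2 per point) used a clonal C2C12 line carrying CMV-LacZ. Cells were assayed as myoblasts or as differentiated myotubes, and β-galactosidase levels were read with the FDG fluorogenic substrate.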

## CCOc1ccccc1NC(=O)COC(=O)CNS(=O)(=O)c1ccc(C)cc1 [MLS000393567-01]
[1]; 0.5 uM
  CMV-LACZ in Myotubes, signal relative to DMSO: 1.0400
[1]; 1 uM
  CMV-LACZ in Myotubes, signal relative to DMSO: 0.9524
[1]; 5 uM
  CMV-LACZ in Myotubes, signal relative to DMSO: 0.9322
[1]; 10 uM
  CMV-LACZ in Myotubes, signal relative to DMSO: 0.9858
[1]; 20 uM
  CMV-LACZ in Myotubes, signal relative to DMSO: 1.0160
[1]; 40 uM
  CMV-LACZ in Myotubes, signal relative to DMSO: 0.9100
[2]; 0.5 uM
  Burkin Assay in Myoblasts, signal relative to DMSO: 1.032
[2]; 1 uM
  Burkin Assay in Myoblasts, signal relative to DMSO: 1.051
[2]; 5 uM
  Burkin Assay in Myoblasts, signal relative to DMSO: 0.9724
[2]; 10 uM
  Burkin Assay in Myoblasts, signal relative to DMSO: 0.9325
[2]; 20 uM
  Burkin Assay in Myoblasts, signal relative to DMSO: 0.8334
[2]; 40 uM
  Burkin Assay in Myoblasts, signal relative to DMSO: 0.8705
[3]; 0.5 uM
  Burkin Assay in Myotubes, α7 integrin LacZ reporter signal relative to DMSO: 0.8882
[3]; 1 uM
  Burkin Assay in Myotubes, α7 integrin LacZ reporter signal relative to DMSO: 0.9953
[3]; 5 uM
  Burkin Assay in Myotubes, α7 integrin LacZ reporter signal relative to DMSO: 0.9065
[3]; 10 uM
  Burkin Assay in Myotubes, α7 integrin LacZ reporter signal relative to DMSO: 0.8857
[3]; 20 uM
  Burkin Assay in Myotubes, α7 integrin LacZ reporter signal relative to DMSO: 0.8607
[3]; 40 uM
  Burkin Assay in Myotubes, α7 integrin LacZ reporter signal relative to DMSO: 0.9237
[4]; 0.5 uM
  CMV-LACZ in Myoblasts (β-galactosidase activity relative to DMSO): 1.2117
[4]; 1 uM
  CMV-LACZ in Myoblasts (β-galactosidase activity relative to DMSO): 1.1373
[4]; 5 uM
  CMV-LACZ in Myoblasts (β-galactosidase activity relative to DMSO): 0.6593
[4]; 10 uM
  CMV-LACZ in Myoblasts (β-galactosidase activity relative to DMSO): 0.8148
[4]; 20 uM
  CMV-LACZ in Myoblasts (β-galactosidase activity relative to DMSO): 1.0175
[4]; 40 uM
  CMV-LACZ in Myoblasts (β-galactosidase activity relative to DMSO): 1.1319

## O=C1Nc2ccccc2/C1=C/c1ccc([N+](=O)[O-])cc1 [MLS001194544-01]
[1]; 0.5 uM
  CMV-LACZ in Myotubes, value relative to DMSO: 1.0764
[1]; 1 uM
  CMV-LACZ in Myotubes, value relative to DMSO: 1.1318
[1]; 5 uM
  CMV-LACZ in Myotubes, value relative to DMSO: 0.9683
[1]; 10 uM
  CMV-LACZ in Myotubes, value relative to DMSO: 0.9739
[1]; 20 uM
  CMV-LACZ in Myotubes, value relative to DMSO: 0.9800
[1]; 40 uM
  CMV-LACZ in Myotubes, value relative to DMSO: 0.9400
[2]; 0.5 uM
  Burkin Assay in Myoblasts, value relative to DMSO: 1.044
[2]; 1 uM
  Burkin Assay in Myoblasts, value relative to DMSO: 0.9906
[2]; 5 uM
  Burkin Assay in Myoblasts, value relative to DMSO: 1.02
[2]; 10 uM
  Burkin Assay in Myoblasts, value relative to DMSO: 1.145
[2]; 20 uM
  Burkin Assay in Myoblasts, value relative to DMSO: 0.7914
[2]; 40 uM
  Burkin Assay in Myoblasts, value relative to DMSO: 0.5028
[3]; 0.5 uM
  Burkin Assay in Myotubes, value relative to DMSO: 0.9611
[3]; 1 uM
  Burkin Assay in Myotubes, value relative to DMSO: 0.9995
[3]; 5 uM
  Burkin Assay in Myotubes, value relative to DMSO: 1.002
[3]; 10 uM
  Burkin Assay in Myotubes, value relative to DMSO: 1.07
[3]; 20 uM
  Burkin Assay in Myotubes, value relative to DMSO: 0.754
[3]; 40 uM
  Burkin Assay in Myotubes, value relative to DMSO: 0.7611
[4]; 0.5 uM
  CMV-LACZ in Myoblasts, value relative to DMSO: 0.8975
[4]; 1 uM
  CMV-LACZ in Myoblasts, value relative to DMSO: 0.7213
[4]; 5 uM
  CMV-LACZ in Myoblasts, value relative to DMSO: 0.9068
[4]; 10 uM
  CMV-LACZ in Myoblasts, value relative to DMSO: 1.0363
[4]; 20 uM
  CMV-LACZ in Myoblasts, value relative to DMSO: 0.8983
[4]; 40 uM
  CMV-LACZ in Myoblasts, value relative to DMSO: 0.7383

## CCN(CC(=O)NCc1cccs1)C(=O)COc1ccc(C(N)=O)cc1 [MLS002163101-01]
[1]; 0.5 uM
  CMV-LACZ in Myotubes, signal relative to DMSO: 1.0533
[1]; 1 uM
  CMV-LACZ in Myotubes, signal relative to DMSO: 1.1400
[1]; 5 uM
  CMV-LACZ in Myotubes, signal relative to DMSO: 0.8302
[1]; 10 uM
  CMV-LACZ in Myotubes, signal relative to DMSO: 0.8407
[1]; 20 uM
  CMV-LACZ in Myotubes, signal relative to DMSO: 0.9212
[1]; 40 uM
  CMV-LACZ in Myotubes, signal relative to DMSO: 1.5447
[2]; 0.5 uM
  Burkin Assay in Myoblasts, signal relative to DMSO: 0.9552
[2]; 1 uM
  Burkin Assay in Myoblasts, signal relative to DMSO: 0.9442
[2]; 5 uM
  Burkin Assay in Myoblasts, signal relative to DMSO: 0.9699
[2]; 10 uM
  Burkin Assay in Myoblasts, signal relative to DMSO: 1.251
[2]; 20 uM
  Burkin Assay in Myoblasts, signal relative to DMSO: 0.9457
[2]; 40 uM
  Burkin Assay in Myoblasts, signal relative to DMSO: 0.9775
[3]; 0.5 uM
  Burkin Assay in Myotubes, α7 integrin LacZ reporter signal relative to DMSO: 1.045
[3]; 1 uM
  Burkin Assay in Myotubes, α7 integrin LacZ reporter signal relative to DMSO: 0.9075
[3]; 5 uM
  Burkin Assay in Myotubes, α7 integrin LacZ reporter signal relative to DMSO: 1.101
[3]; 10 uM
  Burkin Assay in Myotubes, α7 integrin LacZ reporter signal relative to DMSO: 1.302
[3]; 20 uM
  Burkin Assay in Myotubes, α7 integrin LacZ reporter signal relative to DMSO: 0.7782
[3]; 40 uM
  Burkin Assay in Myotubes, α7 integrin LacZ reporter signal relative to DMSO: 0.9761
[4]; 0.5 uM
  CMV-LACZ in Myoblasts (β-galactosidase activity relative to DMSO): 0.9991
[4]; 1 uM
  CMV-LACZ in Myoblasts (β-galactosidase activity relative to DMSO): 1.0317
[4]; 5 uM
  CMV-LACZ in Myoblasts (β-galactosidase activity relative to DMSO): 1.0262
[4]; 10 uM
  CMV-LACZ in Myoblasts (β-galactosidase activity relative to DMSO): 1.0313
[4]; 20 uM
  CMV-LACZ in Myoblasts (β-galactosidase activity relative to DMSO): 0.9644
[4]; 40 uM
  CMV-LACZ in Myoblasts (β-galactosidase activity relative to DMSO): 1.1556
